# Measured values reported in patent US12359259B2, “Biomarkers for predicting prostate cancer progression” (ACADEMIA SINICA, priority 2018, dated 2025).
# Tests used:
# Assay type in all cases: cell-based
# LNCaP-CR4 cells = test: Colony-formation assay under enzalutamide treatment; conditions: LNCaP-CR4 vs LNCaP; 10 days
# [1] = system: HER2/3 phosphorylation, AR, and PSA expression; test: Immunoblots of HER2/3 phosphorylation, AR and PSA expression after galectin-4 induction
# SOX9 expression = test: Immunoblots of SOX9 expression in 22Rv1-M4 cells; conditions: 3 μM Swainsonine or 4 mM Benzyl-α-GalNAc for 2 days
# [2] = system: LNCaP-tetO-Gal4 and 22Rv1-tetO-Gal4 cells; test: Lectin binding assay (flow cytometry) of cell surface glycans after glycosylation inhibitor treatment
# Method: FIG. 8A to FIG. 8C show the characterization of glycophenotype in prostate cancer cells. FIG. 8A and FIG. 8B show lectin binding assay of LNCaP-tetO-Gal4 (A) and 22Rv1-tetO-Gal4 (B) cells treated with 3 μM Swainsonine or 4 mM Benzyl-α-GalNAc for 2 day following galectin-4 induction by doxycycline. […] Below, the mean fluorescence intensity (MFI) values from triplicates. Data are expressed as mean±SEM. *P<0.05, **P<0.01, ***P<0.001 (unpaired t-test, two-tail).
# To profile cell surface glycans, cells were detached by Accutase (Innovative Cell Technologies, San Diego, CA) treatment, washed with PBS for three times, and suspended in Carbo-Free Blocking Solution (VECTOR, Burlingame, CA). Cells were incubated with biotin-conjugated lectins, PHA-L (2 μg/mL), PNA (10 μg/mL), MALII (5 μg/mL), Jacalin (5 μg/mL, VECTOR), and galectin-4 (5 μg/mL), or BSA as a control followed by APC-labeled streptavidin. After incubation for 30 min on ice, cells were analyzed on an Accuri C6 flow cytometer (BD Biosciences, Taiwan). Galectin-4 (R&D Systems, Minneapolis, MN) and BSA were biotinylated using Lightning-Link Rapid Conjugation System (Innova Biosciences, Cambridge, UK) following the manufacturer's instructions.
# MYC and C1GALT1 = test: Immunoblots of MYC and C1GALT1 levels under inhibitor treatment; conditions: 22Rv1-M4 and galectin-4-expressing 22Rv1 and LNCaP cells; 24 h
# Text: Data are expressed as mean±SEM. *P<0.05, **P<0.01, ***P<0.001 (unpaired t-test, two-tail).
# [3] = 4 mM Benzyl-α-GalNAc for 2 day, PCa cells
smiles,measurement,setting,value
CNC(=O)c1ccc(N2C(=S)N(c3ccc(C#N)c(C(F)(F)F)c3)C(=O)C2(C)C)cc1F [enzalutamide],clonogenic growth of LNCaP-CR4 cells under enzalutamide,LNCaP-CR4 cells,resistance
O[C@H]1[C@H]2[C@H](O)CCCN2C[C@H]1O [swainsonine],HER2/3 phosphorylation and induction of AR and PSA protein expression,"[1]; 3 μM Swainsonine for 2 day, galectin-4 expressing LNCaP and 22Rv1 cells",did not affect
same,SOX9 expression,SOX9 expression,did not affect
same,PHA-L staining for N-glycans,"[2]; 3 μM Swainsonine for 2 day following doxycycline-mediated galectin-4 induction, LNCaP and 22Rv1 cells",decreased
N#CC(=C(N)Sc1ccc(N)cc1)c1ccccc1C(F)(F)F [MEK1/2 inhibitor],induction of MYC and C1GALT1 compared to vehicle treatment,MYC and C1GALT1,blocked
CC(=O)N[C@H]1[C@@H](OCc2ccccc2)O[C@H](CO)[C@H](O)[C@@H]1O [benzyl-α-GalNAc],galectin-4-mediated activation of HER2/3 and AR signaling,"[1]; 4 mM Benzyl-α-GalNAc for 2 day, galectin-4 expressing LNCaP and 22Rv1 cells",blocked
same,galectin-4 activity,[1]; PCa cells,suppressed
same,SOX9 expression,SOX9 expression,significantly inhibited
same,binding of treated cells to MALII,[2]; [3],reduced
same,binding of treated cells to PNA,[2]; [3],increased
same,"biosynthesis of α2,3-sialyl-T antigen",[2]; PCa cells,significantly impaired
